Results as given in patent US8003812B2, “C10 cyclopentyl ester substituted taxanes” (priority 2004, dated 2011).
Read-outs that look alike come from different tables or passages of the source.

How the values were obtained:
[1] = test system: HCT 116 human colon carcinoma; test: In vitro cytotoxicity, cell colony formation assay, HCT116; type: cell-based
Description: (§1) The cells were incubated in a CO2 incubator at 37° C. for 5 h for attachment to the bottom of Petri dishes. The compound of the present invention was made up fresh in medium at ten times the final concentration, and then 0.3 mL of this stock solution was added to the 2.7 mL of medium in the dish. The cells were then incubated with drugs for 72 h at 37° C. At the end of incubation the drug-containing media were decanted, the dishes were rinsed with 4 mL of Hank's Balance Salt Solution (HBSS), 5 mL of fresh medium was added, and the dishes were returned to the incubator for colony formation. The cell colonies were counted using a colony counter after incubation for 7 days. Cell survival was calculated and the values of IC50 (the drug concentration producing 50% inhibition of colony formation) were determined for each tested compound.

[2] = test system: VM46 (resistant variant of human colon carcinoma HCT 116); test: In vitro cytotoxicity, cell colony formation assay, VM46; type: cell-based
Description: as §1
Identical assessments were carried out using VM46 (resistant variant of human colon carcinoma HCT 116 obtained from Dr. Li-Xi, M.D, Ph.D., California Pacific Medical Center, CA).

Sprague-Dawley rats [3] = test: In vivo toxicity assessment in rats, intravenous; conditions: IV; for Rat tox score IV: summary score
Description: (§2) Toxicity was assessed in 250-300g Sprague-Dawley rats and three rats were used per dose group. Three dose groups of the test compound, (i.e., 3 mg/kg, 9 mg/kg and 12 mg/kg for intravenous administration; 15 mg/kg, 30 mg/kg and 40 mg/kg) and 1 control group constituted a study. Animals were observed and clinical chemistry data collected at days 4 and 10. Rats were euthanized on day 11 and the nerves were excised and fixed upon euthanization for further examination.
(§3) Each rat is scored as described below and a final toxicity score that incorporates all parameters is assigned. A dead rat is assigned a score of zero. Most of the parameters contribute a positive value towards a total possible score of 130. For body weight, white blood cell, and platelet decreases, recovery is considered. […] The total score is divided by 13 to put it on a scale from 0 to 10.

Sprague-Dawley rats [4] = test: In vivo toxicity assessment in rats, oral; parameters: species or system rat; conditions: for Rat tox score PO: summary score
Description: as §2, §3

[5] = test system: DLD-1 (resistant human colon carcinoma); test: In vitro cytotoxicity, MTT assay, DLD-1; type: cell-based
[6] = test system: human pancreatic tumor xenograft Panc-1; conditions: single dose IV
Description: (§4) [formula] where TTE is expressed in days, endpoint volume is in mm^3, b is the intercept, and m is the slope of the line obtained by linear regression of a log-transformed tumor growth data set. The data set is comprised of the first observation that exceeded the study endpoint volume and the three consecutive observations that immediately preceded the attainment of the endpoint volume. […] Animals classified as TR (treatment-related) deaths or NTRM (non-treatment-related metastasis) deaths are assigned a TTE value equal to the day of death. Animals classified as NTR (non-treatment-related) deaths are excluded from TTE calculations. Treatment efficacy was determined from tumor growth delay (TGD), which is defined as the increase in the median TTE for a treatment group compared to the control group: TGD=T−C, expressed in days, or as a percentage of the median TTE of the control group:
(§5) Treatment may cause partial regression (PR) or complete regression (CR) of the tumor in an animal. In a PR response, the tumor volume is 50% or less of its Day 1 volume for three consecutive measurements during the course of the study, and equal to or greater than 13.5 mm^3 for one or more of these three measurements. In a CR response, the tumor volume is less than 13.5 mm^3 for three consecutive measurements during the course of the study. An animal with a CR response at the termination of a study is additionally classified as a long-term tumor-free survivor (LTTFS).
With respect to toxicity, the animals were weighed daily on Days 1-5, then twice weekly until the completion of the study. The mice were examined frequently for overt signs of any adverse, drug-related side effects. […] The log rank test was employed to analyze the significance of the difference between the TTE values of a drug-treated group and the vehicle-treated control group. The log rank test analyzes the data for all animals except the NTR deaths. The two-tailed statistical analyses were conducted at P=0.05. The group median tumor growth curves show the median tumor volume (MTV) as a function of time. When an animal exited the study due to tumor size or TR death, the final tumor volume recorded for the animal was included with the data used to calculate the median volume at subsequent time points. If more than one death occurred in a treatment group, the tumor growth curve for that group was truncated at the time of the second death.
Human Panc-1 pancreatic carcinomas were maintained in athymic nude mice. A tumor fragment (1 mm^3) was implanted s.c. into the right flank of each test mouse. Tumors were monitored twice weekly and then daily as their size approached 200-400 mm^3 with a mean of 250-300 mm^3. On Day 1 of the study, the animals were sorted into groups of six mice, with tumor sizes of 171.5-486.0 mm^3 and group mean tumor sizes of 269.7-275.0 mm^3. Mice were sorted into groups containing six mice each, and treated according to the protocol in Tables 2A and 2B. All treatments were administered intravenously. Control Group 1 mice received the ethanol 5% and Liposyn II 95% vehicle, once on Day 1 (qd×1). […] Dosing volumes were 0.5 ml/20 g body weight for qd×1 dosing regimens and 0.3 mL/20 g body weight for the qod×5 or q4d×4 dosing schedules. Dosing volumes were scaled to the body weight of each animal. The vehicle was given to Group 1 mice in a single dose on Day 1 (qd×1).

[7] = test system: HT29 (human colon carcinoma) xenograft; conditions: single dose IV
Description: Score=10*(TWd1−TWdn)/TWd1, where
TWd1=tumor weight on day 1
(§6) TWDn=lowest tumor weight on day 10 or later
(§7) Thus the best score for complete regression would be 10.

[8] = test system: human pancreatic tumor xenograft Panc-1; conditions: Panc-1, best score 10
Description: The tumor used for this study was maintained in athymic nude mice. A tumor fragment (1 mm^3) was implanted s.c. into the right flank of each test mouse. Tumors were monitored twice weekly and then daily as their volume approached 200-400 mm^3 with a mean of 250-300 mm^3. On Day 1 of the study, the animals were sorted into treatment groups with tumor sizes of 171.5-320.0 mm^3 and group mean tumor sizes of 212.6-216.0 mm^3. Tumor size, in mm^3, was calculated from the following formula:
[formula] where w=width and l=length in mm of the tumor. Tumor weight was estimated with the assumption that 1 mg is equivalent to 1 mm^3 of tumor volume. […] All treatments were administered orally, once on Day 1 (qd×1). […] In all groups, the dosing volume of 0.6 mL/20 g mouse was scaled to the body weight of each animal. Each animal was euthanized when its neoplasm reached the predetermined endpoint size (1200 mm^3). The time to endpoint (TTE) for each mouse was calculated by the following equation:
as §4
[formula] where: • T=median TTE for a treatment group and • C=median TTE for control Group 1.
as §5
With respect to toxicity, the animals were weighed daily on Days 1-5, then twice weekly until the completion of the study. The mice were examined frequently for overt signs of any adverse, drug-related side effects. Acceptable toxicity for the maximum tolerated dose (MTD) of a cancer drug in mice is defined by the NCl as a group mean body-weight (BW) loss of less than 20% during the test, and not more than one toxic death among ten treated animals. The log rank test was employed to analyze the significance of the difference between the TTE values of a drug-treated group and the vehicle-treated control group. The log rank test analyzes the data for all animals except the NTR deaths. The two-tailed statistical analyses were conducted at P=0.05. The group median tumor growth curves show the median tumor volume (MTV) as a function of time. When an animal exited the study due to tumor size or TR death, the final tumor volume recorded for the animal was included with the data used to calculate the median volume at subsequent time points.

[9] = test system: HT29 (human colon carcinoma) xenograft; conditions: HT29, best score 10
Description: Score=10*(TWd1−TWdn)/TWd1, where
TWd1=tumor weight on day 1
as §6, §7

[10] = Homo sapiens, HCT-116, 72 h drug incubation

Structure (SMILES) | IC50 ([1]; 72 h drug incubation) | IC50 ([2]; 72 h drug incubation) | Rat tox score IV (Sprague-Dawley rats [3]; scale 0 to 10) | Rat tox score PO (Sprague-Dawley rats [4]; scale 0 to 10) | further results
CC(=O)OC12COC1CC(O)C1(C)C(=O)C(OC(=O)C3CC3)C3=C(C)C(OC(=O)C(O)C(NC(=O)OC(C)(C)C)c4ccco4)CC(O)(C(OC(=O)c4ccccc4)C21)C3(C)C (stereo not drawn) [Compound 0843, reference compound] | 0.24 nM | 0.86 nM | 0 | 0 | 
CC(=O)OC12COC1CC(O)C1(C)C(=O)C(OC(=O)C3CC3)C3=C(C)C(OC(=O)C(O)C(NC(=O)OC(C)(C)C)c4ccncc4)CC(O)(C(OC(=O)c4ccccc4)C21)C3(C)C (stereo not drawn) [Compound 2813] | 0.05 nM | 8.22 nM |  |  | 
CC(=O)OC12COC1CC(O)C1(C)C(=O)C(OC(=O)C3CC3)C3=C(C)C(OC(=O)C(O)C(NC(=O)OCC(C)C)c4cccs4)CC(O)(C(OC(=O)c4ccccc4)C21)C3(C)C (stereo not drawn) [Compound 3129] | 1.53 nM | 2.88 nM |  |  | 
CC(=O)OC12COC1CC(O)C1(C)C(=O)C(OC(=O)C3CC3)C3=C(C)C(OC(=O)C(O)C(NC(=O)OC(C)C)c4ccco4)CC(O)(C(OC(=O)c4ccccc4)C21)C3(C)C (stereo not drawn) [Compound 3853, reference compound] | 0.08 nM | 0.99 nM | 1 | 1 | 
CC(=O)O[C@H]1C(=O)[C@@]2(C)[C@H]([C@H](OC(=O)c3ccccc3)[C@]3(O)C[C@H](OC(=O)[C@H](O)[C@@H](NC(=O)c4ccccc4)c4ccccc4)C(C)=C1C3(C)C)[C@]1(OC(C)=O)CO[C@@H]1C[C@@H]2O [paclitaxel] |  |  |  |  | IC50 [1, 10]: 2.1 nM; IC50 [2, 10]: 20 nM; IC50 ([5]; Homo sapiens, DLD-1): 10.1 nM
CC(=O)OC12COC1CC(O)C1(C)C(=O)C(OC(=O)C3CC3)C3=C(C)C(OC(=O)C(O)C(NC(=O)OC(C)(C)C)c4cccs4)CC(O)(C(OC(=O)c4ccccc4)C21)C3(C)C (stereo not drawn) [Compound 0854, reference compound] | 0.05 nM | 0.09 nM | 1 | 0 | 
CC(=O)OC12COC1CC(O)C1(C)C(=O)C(OC(=O)C3CC3)C3=C(C)C(OC(=O)C(O)C(NC(=O)OC(C)(C)C)c4ccsc4)CC(O)(C(OC(=O)c4ccccc4)C21)C3(C)C (stereo not drawn) [Compound 2794] | 0.28 nM | 2.03 nM |  |  | 
CCOC(=O)NC(c1cccs1)C(O)C(=O)OC1CC2(O)C(OC(=O)c3ccccc3)C3C4(OC(C)=O)COC4CC(O)C3(C)C(=O)C(OC(=O)C3CC3)C(=C1C)C2(C)C (stereo not drawn) [Compound 4051] | 0.3 nM | 1.62 nM |  | 5 | 
CC(=O)OC12COC1CC(O)C1(C)C(=O)C(OC(=O)C3CC3)C3=C(C)C(OC(=O)C(O)C(NC(=O)OCC(C)C)c4ccco4)CC(O)(C(OC(=O)c4ccccc4)C21)C3(C)C (stereo not drawn) [Compound 3102, reference compound] | 0.33 nM | 1.49 nM | 6 | 6 | Efficacy Score = 10*(TWd1−TWdn)/TWd1 ([6]; Dose 60, best score 10): 2.6; Efficacy Score = 10*(TWd1−TWdn)/TWd1 ([6]; Dose 120, best score 10): 5.3; Efficacy Score = 10*(TWd1−TWdn)/TWd1 ([7]; Dose 60, best score 10): 1.3; Efficacy Score = 10*(TWd1−TWdn)/TWd1 ([7]; Dose 120, best score 10): 5.3
CC(=O)O[C@@]12CO[C@@H]1C[C@H](O)[C@@]1(C)C(=O)[C@H](O)C3=C(C)[C@@H](OC(=O)[C@H](O)[C@@H](NC(=O)OC(C)(C)C)c4ccccc4)C[C@@](O)([C@@H](OC(=O)c4ccccc4)[C@H]21)C3(C)C [docetaxel] | 0.6 nM | 6.7 nM |  |  | IC50 [5]: 9.1 nM
CC(=O)OC12COC1CC(O)C1(C)C(=O)C(OC(=O)C3CC3)C3=C(C)C(OC(=O)C(O)C(NC(=O)OCC(C)C)c4ccsc4)CC(O)(C(OC(=O)c4ccccc4)C21)C3(C)C (stereo not drawn) [Compound 5011] | 2.99 nM | 8.47 nM |  |  | 
CC(=O)OC12COC1CC(O)C1(C)C(=O)C(OC(=O)C3CC3)C3=C(C)C(OC(=O)C(O)C(NC(=O)OCC(C)C)c4ccoc4)CC(O)(C(OC(=O)c4ccccc4)C21)C3(C)C (stereo not drawn) [Compound 4665] | 2.13 nM | 28.4 nM |  |  | 
CCCC(=O)NC(c1ccco1)C(O)C(=O)OC1CC2(O)C(OC(=O)c3ccccc3)C3C4(OC(C)=O)COC4CC(O)C3(C)C(=O)C(OC(=O)C3CC3)C(=C1C)C2(C)C (stereo not drawn) [Compound 4062] | 0.59 nM | 7.64 nM |  |  | 
CC(=O)OC12COC1CC(O)C1(C)C(=O)C(OC(=O)C3CC3)C3=C(C)C(OC(=O)C(O)C(NC(=O)OC(C)(C)C)c4ccccn4)CC(O)(C(OC(=O)c4ccccc4)C21)C3(C)C (stereo not drawn) [Compound 2802] | 0.3 nM | 3.32 nM |  |  | 
CC(=O)OC12COC1CC(O)C1(C)C(=O)C(OC(=O)C3CC3)C3=C(C)C(OC(=O)C(O)C(NC(=O)OC(C)C)c4cccs4)CC(O)(C(OC(=O)c4ccccc4)C21)C3(C)C (stereo not drawn) [Compound 3071, reference compound] | 0.17 nM | 1.51 nM | 5 | 4 | Tox Score, Dose 3 mg (Sprague-Dawley rats [3]; dose 3 mg, scale 0 to 10): 7.7; Tox Score, Dose 9 mg (Sprague-Dawley rats [3]; dose 9 mg, scale 0 to 10): 6; Tox Score, Dose 12 mg (Sprague-Dawley rats [3]; dose 12 mg, scale 0 to 10): 3.2; Tox Score, Weighted Avg (Sprague-Dawley rats [3]; Wt Avg = (Σ(dose × grp score))/24): 4.8; Tox Score, Average (Sprague-Dawley rats [3]; average of 3 dose groups): 5.6; Tox Score, Dose 15 mg (Sprague-Dawley rats [4]; Oral, dose 15 mg, scale 0 to 10): 6.2; Tox Score, Dose 30 mg (Sprague-Dawley rats [4]; Oral, dose 30 mg, scale 0 to 10): 5.1; Tox Score, Dose 40 mg (Sprague-Dawley rats [4]; Oral, dose 40 mg, scale 0 to 10): 1.5; Tox Score, Average (Sprague-Dawley rats [4]; Oral, average of 3 dose groups): 4.3; Tox Score, Weighted Avg (Sprague-Dawley rats [4]; Oral, weighted by dose): 3.6; Efficacy Score = 10*(TWd1−TWdn)/TWd1 ([8]; single dose oral 60 mg/kg): 5.8; Efficacy Score = 10*(TWd1−TWdn)/TWd1 ([8]; single dose oral 120 mg/kg): 7.3; Efficacy Score = 10*(TWd1−TWdn)/TWd1 ([9]; single dose oral 60 mg/kg): 6.3; Efficacy Score = 10*(TWd1−TWdn)/TWd1 ([9]; single dose oral 120 mg/kg): 7.5
CCOC(=O)NC(c1ccco1)C(O)C(=O)OC1CC2(O)C(OC(=O)c3ccccc3)C3C4(OC(C)=O)COC4CC(O)C3(C)C(=O)C(OC(=O)C3CC3)C(=C1C)C2(C)C (stereo not drawn) [Compound 3677] | 0.3 nM | 18.6 nM |  |  | 
CC(=O)OC12COC1CC(O)C1(C)C(=O)C(OC(=O)C3CC3)C3=C(C)C(OC(=O)C(O)C(NC(=O)OC(C)(C)C)c4ccoc4)CC(O)(C(OC(=O)c4ccccc4)C21)C3(C)C (stereo not drawn) [Compound 2781, reference compound] | 0.18 nM | 1.91 nM | 1 | 0 | 
CCCC(=O)NC(c1cccs1)C(O)C(=O)OC1CC2(O)C(OC(=O)c3ccccc3)C3C4(OC(C)=O)COC4CC(O)C3(C)C(=O)C(OC(=O)C3CC3)C(=C1C)C2(C)C (stereo not drawn) [Compound 3132] | 0.37 nM | 5.33 nM |  |  | 
